{"source": "patent EP0231622B1", "about": "“Inhibition of the 5-lipoxygenase pathway” (priority 1985, dated 1987)", "key": {"[1]": {"target": "T1, 5-Lipoxygenase (Rattus norvegicus, UniProt P12527)", "T1 construct": "The activities of these enzymes in extracts of RBL-1 cells were assayed; host or cells: RBL-1 cells, disrupted by nitrogen cavitation; 10,000 x g or 100,000 x g supernatant", "T1 sequence (P12527 1-673)": "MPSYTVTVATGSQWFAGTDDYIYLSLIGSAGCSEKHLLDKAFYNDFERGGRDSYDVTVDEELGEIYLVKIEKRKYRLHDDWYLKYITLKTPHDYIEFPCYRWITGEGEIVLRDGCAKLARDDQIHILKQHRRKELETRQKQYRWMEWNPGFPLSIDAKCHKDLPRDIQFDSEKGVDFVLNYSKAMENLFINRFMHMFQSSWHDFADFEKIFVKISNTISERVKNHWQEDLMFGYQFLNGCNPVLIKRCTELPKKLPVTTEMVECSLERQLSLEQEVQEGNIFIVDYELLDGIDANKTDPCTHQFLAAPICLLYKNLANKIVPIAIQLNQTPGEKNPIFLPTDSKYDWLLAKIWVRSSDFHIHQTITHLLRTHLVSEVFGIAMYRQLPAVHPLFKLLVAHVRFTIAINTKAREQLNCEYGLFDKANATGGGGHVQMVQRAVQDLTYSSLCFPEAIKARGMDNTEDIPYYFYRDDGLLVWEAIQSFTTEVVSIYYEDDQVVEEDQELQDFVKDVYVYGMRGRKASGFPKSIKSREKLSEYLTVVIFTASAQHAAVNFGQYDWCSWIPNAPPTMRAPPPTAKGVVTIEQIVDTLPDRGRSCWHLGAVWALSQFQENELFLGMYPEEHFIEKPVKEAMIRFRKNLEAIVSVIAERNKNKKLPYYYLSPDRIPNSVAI", "assay": "5-Lipoxygenase activity (5-HETE) in 10,000 x g supernatant of RBL-1 cells", "assay_type": "biochemical", "settings": "text b252; RBL-1 cell extracts; read-out: IC₅₀ 5-HETE synthesis", "quoted_text": "(§1) Harvested cells were washed with 50 mM sodium phosphate buffer, pH 7.0, containing 1 mM EDTA and 0.1% gelatin, resuspended in fresh buffer (5 x 10⁷ cells/ml) and disrupted by nitrogen cavitation using the Parr bomb at 750 psi for 10 min. The broken cell extract was then centrifuged at 10,000 x g for 20 minutes and the supernatant centrifuged at 100,000 x g for 60 minutes. Aliquots (0.25 mls) of the supernatant were preincubated with or without drugs for 10 min, after which 10 ul CaCl₂ (50 mM) was added and the reaction was initiated with 2.5 ul of 2.5 mM arachidonic acid-1-¹⁴C (final concentration was 25 mM; specific activity 20,000 dpm/nmole). After incubation for 3 min at 37°C, the reaction was terminated by addition of 2 volumes (0.5 ml) ice cold acetone and the sample was allowed to deproteinize on ice for 10 min prior to centrifugation at 1,000 x g for 10 min. The deproteinized supernatant was adjusted to pH 3.5 with 2N formic acid and extracted with 2 volumes of ice cold ethyl acetate. […] Arachidonic acid, 5-HETE, di-HETE and PGD₂ were quantified with a Berthold LB 2832 autoscanner."}, "[2]": {"tested_on": "Cyclooxygenase", "assay": "Cyclooxygenase activity (PGD2) in 10,000 x g supernatant of RBL-1 cells", "assay_type": "biochemical", "settings": "text b252; RBL-1 cell extracts; read-out: IC₅₀ PGD₂ production", "quoted_text": "as §1"}, "[3]": {"target": "T1, 5-Lipoxygenase", "assay": "5-HETE production by RBL-1 high speed supernatant", "assay_type": "biochemical", "description": "For in vitro experiments, compounds were dissolved at appropriate concentrations in ethanol or DMSO (dimethylsulfoxide) (final concentration <1.0%) and then diluted to final concentrations using the buffers indicated in the text.\nThe activities of these enzymes in extracts of RBL-1 cells were assayed using the method of Jakschik and Lee, Nature, 287, 51-52 (1980). RBL-1 cells were obtained from the American Type Culture Collection (#CRL 1378) and were grown at 37°C (5% CO₂ in air) in spinner culture in MEM supplemented with 10% heat inactivated fetal calf serum. Harvested cells were washed with 50 mM sodium phosphate buffer, pH 7.0, containing 1 mM EDTA and 0.1% gelatin, resuspended in fresh buffer (5 x 10⁷ cells/ml) and disrupted by nitrogen cavitation using the Parr bomb at 750 psi for 10 min. The broken cell extract was then centrifuged at 10,000 x g for 20 minutes and the supernatant centrifuged at 100,000 x g for 60 minutes. Aliquots (0.25 mls) of the supernatant were preincubated with or without drugs for 10 min, after which 10 ul CaCl₂ (50 mM) was added and the reaction was initiated with 2.5 ul of 2.5 mM arachidonic acid-1-¹⁴C (final concentration was […]; specific activity 20,000 dpm/nmole). After incubation for 3 min at 37°C, the reaction was terminated by addition of 2 volumes (0.5 ml) ice cold acetone and the sample was allowed to deproteinize on ice for 10 min prior to centrifugation at 1,000 x g for 10 min. The deproteinized supernatant was adjusted to pH 3.5 with 2N formic acid and extracted with 2 volumes of ice cold ethyl acetate. The extracted samples were dried under argon, redissolved in ethyl acetate and applied to Whatman LK5D thin layer chromatography (TLC) plates which were developed using the A-9 solvent system [organic phase of ethyl acetate: 2,2,5-trimethylpentane:acetic acid: water (110:50:20:10)] described by Hamberg and Samuelsson, J. Biol. Chem., 241, 257-263 (1966). Arachidonic acid, 5-HETE, di-HETE and PGD₂ were quantified with a Berthold LB 2832 autoscanner.\nThe 5-lipoxygenase and LTA₄ synthetase activities were further studied under the following conditions. An additional centrifugation of the RBL-1 supernatant was run at 100,000 x g for 60 min, to remove the particulate cyclooxygenase activity. Sample incubation was done under conditions similar to those described above, i.e., 2 mM CaCl₂ and 25 uM arachidonic acid-1-¹⁴C, however, with an incubation time of 5 min at […]. Under these conditions, only the 5-lipoxygenase pathway metabolites were detectable. The 5-HETE and di-HETEs were formed at a linear rate, and […] amounts of the arachidonic acid-1-¹⁴C substrate were utilized."}, "[4]": {"target": "T2, 5-LO (Rattus norvegicus, UniProt P12527)", "T2 construct": "The activities of these enzymes in extracts of RBL-1 cells were assayed; host or cells: RBL-1 cells, disrupted by nitrogen cavitation; 10,000 x g or 100,000 x g supernatant", "T2 sequence (P12527 1-673)": "T1 sequence (P12527 1-673)", "assay": "di-HETE production by RBL-1 high speed supernatant", "assay_type": "biochemical", "procedure,_shortened": "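RBL-1 cell 100,000 x g supernatant was preincubated 10 min with compound, then given CaCl₂ and 25 uM [¹⁴C]arachidonic acid for 3 min at 37°C. 5-HETE and di-HETE were quantified by TLC radioscanning. A variant re-centrifuged the supernatant and incubated 5 min at 5°C with 2 mM CaCl₂.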"}, "[5]": {"tested_on": "Arachidonic Acid-Induced Cellular Infiltration", "assay": "Arachidonic acid-induced air pouch inflammation", "assay_type": "in vivo, Lewis rats", "settings": "100 mg/kg; 3 hours after arachidonic acid", "from_the_text": "In the following Examples where mice were used, they were male Balb/c mice (20-28 g), and where rats were used, they were male Lewis rats (180-210 g). All mice and rats were obtained from Charles River Breeding Laboratories, Kingston, N.Y. Within a single experiment, mice and rats were sex and age matched.\nThe compounds of Formula (IA) were used either as the free base or in the appropriate salt form. Levamisole was used as the hydrochloride salt. The compounds were homogenized in 0.5% tragacanth. Compounds were administered by gavage at the indicated dose in a final volume of 10 ml/kg. Nordihydroguaiaretic acid (NDGA) was solubilized in dimethylacetamide and diluted with olive oil for subcutaneous administration.\nRats were shaved on the dorsal flank, and then injected subcutaneously one day later with 20 ml of air to form a defined pouch, by the method of Sedgwick et al., J. Pathology, 141, 483-495 (1983). The air pouch was reinflated as necessary over the next 6 days. To assay anti-inflammatory activity, animals were treated orally with test compound or vehicle (10 ml/kg) one hour before injection of 2.0 ml of a 2.0% carrageenan suspension containing 200 units/ml penicillin and 100 »g/ml streptomycin into the air pouch. In other experiments, 5 ml of 0.1% arachidonic acid in 0.2 M bicarbonate buffer was injected two hours after drug treatment. Animals were sacrificed using CO₂ three hours after instillation of irritant. The exudate was then aspirated from the pouch and neutrophil count and differential cell count were measured."}}, "note": "Marks after values point to notes of the source that are not given here."}
{"compound": "Fc1ccc(-c2nc3n(c2-c2ccncc2)CCS3)cc1", "note": "[Compound 1, 5-(4-pyridyl)-6-(4-fluorophenyl)-2,3-dihydroimidazo[2,1-b]thiazole]", "values": [{"measurement": "IC50", "setting": "[1]", "value": 75, "unit": "µM"}, {"measurement": "IC50", "setting": "[2]", "value": 100, "unit": "µM"}, {"measurement": "5-HETE (nM/ml)", "setting": "[3]; 1 uM", "value": "8.86 ± 0.31", "unit": "nM/ml"}, {"measurement": "inhibition at 1 µM", "setting": "[3]; 1 uM, read-out: % Control (5-HETE)", "value": 12.7, "unit": "%"}, {"measurement": "5-HETE (nM/ml)", "setting": "[3]; 3.3 uM", "value": "7.63 ± 0.44", "unit": "nM/ml"}, {"measurement": "inhibition at 3.3 µM", "setting": "[3]; 3.3 uM, read-out: % Control (5-HETE)", "value": 24.9, "unit": "%"}, {"measurement": "5-HETE (nM/ml)", "setting": "[3]; 10 uM", "value": "5.57 ± 0.35", "unit": "nM/ml"}, {"measurement": "inhibition at 10 µM", "setting": "[3]; 10 uM, read-out: % Control (5-HETE)", "value": 45.1, "unit": "%"}, {"measurement": "5-HETE (nM/ml)", "setting": "[3]; 33 uM", "value": "3.36 ± 0.07", "unit": "nM/ml"}, {"measurement": "inhibition at 33 µM", "setting": "[3]; 33 uM, read-out: % Control (5-HETE)", "value": 67.9, "unit": "%"}, {"measurement": "5-HETE (nM/ml)", "setting": "[3]; 100 uM", "value": "1.08 ± 0.13", "unit": "nM/ml"}, {"measurement": "inhibition at 100 µM", "setting": "[3]; 100 uM, read-out: % Control (5-HETE)", "value": 89.4, "unit": "%"}, {"measurement": "Di-HETE (nM/ml)", "setting": "[4]; 1 uM", "value": "1.56 ± 0.06", "unit": "nM/ml"}, {"measurement": "inhibition at 1 µM", "setting": "[4]; 1 uM, read-out: % Control (Di-HETE)", "value": 19.7, "unit": "%"}, {"measurement": "Di-HETE (nM/ml)", "setting": "[4]; 3.3 uM", "value": "1.34 ± 0.12", "unit": "nM/ml"}, {"measurement": "inhibition at 3.3 µM", "setting": "[4]; 3.3 uM, read-out: % Control (Di-HETE)", "value": 30.9, "unit": "%"}, {"measurement": "Di-HETE (nM/ml)", "setting": "[4]; 10 uM", "value": "0.88 ± 0.21", "unit": "nM/ml"}, {"measurement": "inhibition at 10 µM", "setting": "[4]; 10 uM, read-out: % Control (Di-HETE)", "value": 54.8, "unit": "%"}, {"measurement": "Di-HETE (nM/ml)", "setting": "[4]; 33 uM", "value": "0.40 ± 0.08", "unit": "nM/ml"}, {"measurement": "inhibition at 33 µM", "setting": "[4]; 33 uM, read-out: % Control (Di-HETE)", "value": 79.6, "unit": "%"}, {"measurement": "Di-HETE (nM/ml)", "setting": "[4]; 100 uM", "value": "0.03 ± 0.04", "unit": "nM/ml"}, {"measurement": "inhibition at 100 µM", "setting": "[4]; 100 uM, read-out: % Control (Di-HETE)", "value": 98.3, "unit": "%"}, {"measurement": "IC50", "setting": "[4]; soluble extract of RBL-1 cells containing only lipoxygenase activity, read-out: IC₅₀ eicosanoid formation (di-HETE production)", "value": 7.5, "unit": "µM"}, {"measurement": "Cellular Infiltrate (Total x 10⁻⁶) MN", "setting": "[5]", "value": "1.5 ± 1.1^d x 10⁻⁶"}, {"measurement": "Cellular Infiltrate (Total x 10⁻⁶) PMN", "setting": "[5]", "value": "1.2 ± 0.7^e x 10⁻⁶"}, {"measurement": "Exudate Volume", "setting": "[5]", "value": "2.6 ± 0.8", "unit": "mL"}]}
